The assay concerns UCP1 and DIO2 expression in differentiated hBA. The experiment in a line: Q-RT-PCR for UCP1 and DIO2 in differentiated hBA treated with norepinephrine or browning agents. It counts as cell-based, human. To be noted: hBAs from subject 2; 1 uM norepinephrine (NE) for 4 h. How it is done:
FIG. 4A depicts total cellular respiration rate (OCR) measured using the Seahorse extracellular flux analyzer in differentiated hWA and hBA from Sub1 and Sub2 that were treated for 4 h with 10 uM forskolin (Fsk). The same number of cells was used in the assay. Data are presented as mean±s.e.m. (n=10; two-tailed Student's t-test; *P<0.05, **P<0.01, ***P<0.001). A representative experiment from a total of three independent studies is shown. FIG. 4B depicts Q-RT-PCR analysis for UCP1 and DIO2 expression in differentiated hWA and hBA from Sub1 and Sub2 that were treated for 48 h with 3.3 nM BMP7, 3.3 nM BMP8 and 50 nM FGF21. Data are presented as a fold change compared to vehicle treatment of hWA in each subject (mean±s.e.m., n=3; two-tailed Student's t-test; *P<0.05, **P<0.01, ***P<0.001). A representative experiment from a total of three independent studies is shown. […]
RNA extraction, cDNA synthesis, and quantitative real-time PCR (Q-RT-PCR) were performed as described before (Cypess, A. M., et al. Nat Med 19, 635-639, 2013; Tseng, Y. H., et al. Nature 454, 1000-1004, 2008). Q-RT-PCR assays were run in duplicates and quantified in the ABI Prism 7900 sequence-detection system using SYBR (Roche Applied Science, Indianapolis, Ind.). Relative mRNA expression was determined by the delta-Ct method and the values were normalized to the expression of 18S ribosomal RNA (18s).

For the compound `NC[C@H](O)c1ccc(O)c(O)c1` [norepinephrine], the “levels of UCP1 and DIO2” value was “increasing the levels of UCP1 and DIO2”.

These data come from patent US11078259B2, “Methods and compositions for promoting thermogenic potential” (Joslin Diabetes Center, Inc., priority 2015, dated 2021).
